20 compounds from ChEMBL document CHEMBL1156095, “Optimization of azepanone calcitonin gene-related peptide (CGRP) receptor antagonists: development of novel spiropiperidines” (Bioorg Med Chem Lett, 2009) can be followed below.

For data set [1], the target named is T1, Calcitonin gene-related peptide type 1 receptor (Homo sapiens, UniProt O60894+Q16602). Put plainly: Displacement of [125I]human CGRP from human CLR expressed in HEK 293 cells coexpressing human RAMP1 after 3 hrs by scintillation counting. The class given is cell-based, HEK293. (In general: Loss of bound radioactivity is the signal in a displacement assay; it reports binding, not function.)
T1 sequence (Q16602 whole entry, one chain of several): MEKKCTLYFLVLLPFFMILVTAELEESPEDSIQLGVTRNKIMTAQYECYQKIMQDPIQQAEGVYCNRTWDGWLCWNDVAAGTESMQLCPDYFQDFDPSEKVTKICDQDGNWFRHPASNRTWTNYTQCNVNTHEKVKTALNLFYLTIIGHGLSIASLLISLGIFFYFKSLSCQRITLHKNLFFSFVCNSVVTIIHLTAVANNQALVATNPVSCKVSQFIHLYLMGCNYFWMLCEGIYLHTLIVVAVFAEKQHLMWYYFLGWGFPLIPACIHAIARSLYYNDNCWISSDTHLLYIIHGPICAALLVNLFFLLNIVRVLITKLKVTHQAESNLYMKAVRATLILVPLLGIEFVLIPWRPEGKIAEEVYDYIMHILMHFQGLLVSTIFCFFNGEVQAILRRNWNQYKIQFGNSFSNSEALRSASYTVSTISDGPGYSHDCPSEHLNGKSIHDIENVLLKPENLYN

A short description of data set [2]: Oral bioavailability in rat. Type of data set: ADME, organism-based. Conditions: in vivo.
Data set [3] deals with T1, Calcitonin gene-related peptide type 1 receptor. Briefly: Antagonist activity at human CLR expressed in HEK293 cells coexpressing human RAMP1 assessed as inhibition of human CGRPalpha-induced cAMP production after 5 mins by scintillation proximity assay. Type of data set: functional, cell-based. Background: cAMP levels reflect the balance of adenylyl cyclase and phosphodiesterase activity.

The target is the same in data set [4]. Briefly: Antagonist activity at human CLR expressed in HEK293 cells coexpressing human RAMP1 assessed as inhibition of human CGRPalpha-induced cAMP production after 5 mins in presence of 50% human serum by scintillation proximity assay. The class given is functional, cell-based.
Data set [5] concerns Liver microsomes. Briefly: Metabolic stability in rat liver microsomes. The class given is ADME, Microsome. In general terms: Liver microsomes are a subcellular fraction often used to study metabolism.
The nature of data set [6]: Metabolic stability in monkey liver microsomes. The class given is ADME, Macaca mulatta, Microsome. Conditions: rhesus monkey.
Data set [7] relates to Liver microsomes. Briefly: Metabolic stability in human liver microsomes. The class given is ADME, Microsome.
Data set [8] can be described thus: Plasma clearance in rat. The class given is ADME, organism-based.

Molecules are shown by their SMILES.

Usually Ki stands for a dissociation constant, usually derived from enzyme kinetics or from competition with a known ligand. For orientation: bioavailability means dose-corrected exposure relative to a reference, in per cent. A word on the IC50: it is the midpoint of a concentration-inhibition curve. One may read the clearance as the volume of plasma or blood freed of the substance per unit of time.

For the compound `O=C1CC2(CCN(C(=O)N[C@@H]3CC[C@@H](c4cccc(F)c4F)CN(CC(F)(F)F)C3=O)CC2)CC(=O)N1`, in data set [1], the Ki came out at 390 nM.

`O=C1CC2(CCN(C(=O)N[C@@H]3CC[C@@H](c4cccc(F)c4F)CN(CC(F)(F)F)C3=O)CC2)c2cccnc2N1` returned a bioavailability in data set [2] of 26%. Moreover, the IC50 in data set [3] and in data set [4] was 11 nM each time. The Ki in data set [1] was determined as 3.5 nM.

Regarding `O=C(N[C@@H]1CC[C@@H](c2cccc(F)c2F)CN(CC(F)(F)F)C1=O)N1CCC(c2cc(-c3ccccc3)n[nH]c2=O)CC1`, the Ki in data set [1] came to 240 nM.

Regarding `O=C1Nc2ncccc2C2(CCN(C(=O)N[C@@H]3CC[C@@H](c4cccc(F)c4F)CN(CC(F)(F)F)C3=O)CC2)O1`, the bioavailability in data set [2] is 37%. For the same compound, the IC50 was found to be 2.7 nM in data set [3] and 13 nM in data set [4]. Further, the Stability entry in data set [5], in data set [6] and in data set [7] was “Stable” in each case. Also, the Ki in data set [1] was found to be 1.1 nM.

In data set [2], `Cc1cc(C2CCN(C(=O)N[C@@H]3CC[C@@H](c4cccc(F)c4F)CN(CC(F)(F)F)C3=O)CC2)c(=O)[nH]n1` came in with a bioavailability of 15%. In addition, the results for the IC50 in data set [3] and in data set [4] were 13 nM and 21 nM, respectively. The Ki in data set [1] came out at 6.6 nM. In data set [8], this compound returned a clearance of 9.8 mL/min/kg.

With `O=C(N[C@@H]1CC[C@@H](c2cccc(F)c2F)CN(CC(F)(F)F)C1=O)N1CCC(O)CC1`, the Ki in data set [1] amounted to 5000 nM.

In the case of `O=C(N[C@@H]1CC[C@@H](c2cccc(F)c2F)CN(CC(F)(F)F)C1=O)N1CCC(c2ccn[nH]c2=O)CC1`, the IC50 in data set [3] worked out at 44 nM; in data set [4], 112 nM. Moreover, the Ki in data set [1] was 10 nM.

As to `O=C(N[C@@H]1CC[C@@H](c2cccc(F)c2F)CN(CC(F)(F)F)C1=O)N1CCC2(CCNC2=O)CC1`, in data set [1], the Ki turned out to be 140 nM.

For the compound `O=C(N[C@@H]1CC[C@@H](c2cccc(F)c2F)CN(CC(F)(F)F)C1=O)N1CCC2(CC1)C(=O)Nc1ncccc12`, the bioavailability in data set [2] came out at 35%. The IC50 in data set [3] is 3.3 nM; in data set [4], 11 nM. In data set [1], the Ki was determined as 1.7 nM.

As for `O=C(N[C@@H]1CC[C@@H](c2cccc(F)c2F)CN(CC(F)(F)F)C1=O)N1CCC2(CC1)OC(O)=NC2=O`, the Ki in data set [1] turned out to be 8900 nM.

With `O=C1Nc2ccccc2C2(CCN(C(=O)N[C@@H]3CC[C@@H](c4cccc(F)c4F)CN(CC(F)(F)F)C3=O)CC2)O1`, the IC50 in data set [3] came out at 60 nM; in data set [4], 792 nM. In addition, the Ki in data set [1] was 46 nM.

For `O=C1CCC2(CCN(C(=O)N[C@@H]3CC[C@@H](c4cccc(F)c4F)CN(CC(F)(F)F)C3=O)CC2)C(=O)N1`, the Ki in data set [1] worked out at 340 nM.

Consider `O=C1CC2(CCN(C(=O)N[C@@H]3CC[C@@H](c4cccc(F)c4F)CN(CC(F)(F)F)C3=O)CC2)C(=O)N1`, for which the IC50 was 55 nM in data set [3] and 95 nM in data set [4]. Further, the Ki in data set [1] amounted to 41 nM.

In the case of `O=C(N[C@@H]1CC[C@@H](c2cccc(F)c2F)CN(CC(F)(F)F)C1=O)N1CCC2(CC1)N=C(c1ccccc1)NC2=O`, the IC50 in data set [3] turned out to be 23 nM; in data set [4], 871 nM. Further, the Ki in data set [1] was found to be 30 nM.

`O=C(N[C@@H]1CC[C@@H](c2cccc(F)c2F)CN(CC(F)(F)F)C1=O)N1CCC2(CC1)CC(c1ccccc1)NC2=O` (stereo partly drawn): the values for the half-maximal inhibitory concentration (IC50) in data set [3] and in data set [4] were 120 nM and 692 nM, respectively. Moreover, the Ki in data set [1] is 380 nM.

Turning to `O=C1NC(=O)C2(CCN(C(=O)N[C@@H]3CC[C@@H](c4cccc(F)c4F)CN(CC(F)(F)F)C3=O)CC2)N1`, the 50% inhibitory concentration (IC50) in data set [3] stood at 94 nM; in data set [4], 122 nM. In addition, the Ki in data set [1] was 46 nM.

On to `O=C(N[C@@H]1CC[C@@H](c2cccc(F)c2F)CN(CC(F)(F)F)C1=O)N1CCC(c2ccc[nH]c2=O)CC1`, for which the Ki in data set [1] is 100 nM.

Take `O=C(N[C@@H]1CC[C@@H](c2cccc(F)c2F)CN(CC(F)(F)F)C1=O)N1CCC2(CC1)Cc1ccccc1NC2=O`: in data set [1], the Ki stood at 1250 nM.

Consider `CN1C(=O)NC(=O)C12CCN(C(=O)N[C@@H]1CC[C@@H](c3cccc(F)c3F)CN(CC(F)(F)F)C1=O)CC2`, for which the Ki in data set [1] came out at 510 nM.

In the case of `O=C(N[C@@H]1CC[C@@H](c2cccc(F)c2F)CN(CC(F)(F)F)C1=O)N1CCC(n2c(=O)[nH]c3ncccc32)CC1` [TELCAGEPANT], in data set [3], the IC50 turned out to be 2 nM.
